Experiments:
[1] = system: pho operon genes in S. meliloti cells; assay: Quantitative RT-PCR analysis of pho operon genes; format: cell-based; conditions: compounds 0.5 mM, 3 hours
Protocol: FIG. S1. Quantitative RT-PCR analysis of pho operon genes in S. meliloti cells under P-sufficient conditions (13 mM K-phosphate). The relative expression level was >1 for genes more highly expressed in RD64 and in 1021 cells treated for 3 hours with 0.5 mM IAA, Ind, Trp, ICA and 2,4-D. The relative expression level was <1 for genes more highly expressed in 1021 cells (control). Error bars represent the standard deviation from three independent biological experiments.
FIG. 1. Quantitative RT-PCR analysis of pho operon genes expression in S. meliloti cells under P-starving conditions. The relative expression level was >1 for genes more highly expressed in RD64 and in 1021 cells treated for 3 hours with 0.5 mM IAA, Ind, Trp, ICA and 2,4-D. The relative expression level was <1 for genes more highly expressed in 1021 cells (control). Error bars represent the standard deviation from five independent biological experiments (p<0.05).
Total RNA from P-sufficient and P-starved cells was isolated as previously described (5). cDNA were synthesized with the StrataScript™ reverse transcription reagents (Stratagene) and random hexamers as primers. Quantitative PCR was performed with the Power SYBR PCR Master Mix (Applied Biosystems). Reactions were run on the iCycler iQ (Bio-Rad). The thermo cycling condition were: 15 min at 95° C., 40 cycles of denaturation at 95° C. for 20 s, annealing (20 s) and extension (35 s) at 72° C. Specific primer pairs, designed using the Primer3 software, are shown.
smc02641 and smc00128 were used as housekeeping genes for data normalization in the comparative Ct method as previously described (8). Phosphatase Activity

[2] = system: acid phosphatase; assay: Acid phosphatase activity under P-starved conditions; format: cell-based, S. meliloti; conditions: phosphate starvation; vs 1021 cells; compounds 0.5 mM, 3 hours at 30° C.
[3] = system: S. meliloti cells; assay: Organic acids exuded by S. meliloti cells (HPLC, GC-MS); format: cell-based; conditions: minimal medium containing 5% PR as the sole phosphate source; IAA 0.5 mM where added
Protocol: For phosphate solubilization experiments 5% Moroccan phosphate rock (PR) (Sigma-Aldrich, cat. No. 32) was used as P source. When 5% PR is used as P source to allow bacterial growth this is described as a P-limiting condition. At least five independent experiments were always performed.
The organic acids were determined by HPLC with a reverse-phase Hypersil GOLD C18 (100×4.6 mm) column (Thermo Electron Corporation). The operating conditions and quantification were previously described (20).
Organic acid fractions collected from HPLC were dried, derivatized to their tert-butyldimethylsilyl (tBDMS) derivatives and analysed on a Micromass GCT mass spectrometer (Waters corp, Manchester, UK) coupled to an Agilent 6890 Series gas chromatograph fitted with 7683 auto-sampler (Agilent Technologies, Palo Alto, Calif.) and ZB-5 ms (Phenomenex, Macclesfield, UK) caplillary column (30 m×0.25 mm I.D.×0.25 μm d.f. with 5 m Guardian). Samples were injected using splitless injection technique at 250° C. and a helium gas flow of 2.0 ml min^−1. The oven was set at 70° C. for 2 min, then ramped at 7° C. min^−1 to 350° C. and held for 5 min. The GC interface and source temperatures were set to 250° C. and EI^+ mass spectra were acquired at 70 eV from 0 to 47 min with an acquisition rate of 1 spectra/sec. Chromatographic peaks were identified either from existing mass spectral and retention time data from standards previously analysed at Rothamsted Research LTD (Harpenden Herts, UK) or from the NIST mass spectral database in conjunction with retention data obtained from the literature (30). Determination of the accurate mass, to within 5 ppm, of M^+, M-15^+, M-57^+ was used to verify analyte identifications. The chromatograms obtained for each sample were compared to the derivatization reagent blank.

[4] = Soluble phosphate release into bacterial free medium containing 5% PR; conditions: bacteria free media with addition of IAA (0.5 mM)
Source text: FIG. 4. Changes in soluble phosphate release into the bacterial free medium containing 5% phosphate rock (PR) as P source (P-limiting conditions for bacteria growing in a minimal media with PR). […] The amounts of each added organic acids derived from the data obtained in HPLC analysis and were reported in the Material and Methods section. Data are the mean±SD of five independent biological experiments (p<0.006). The concentration of soluble phosphate was estimated using a modification of Fiske and Subarrow method as described by […] et al. (37). […] Bacterial free medium was also treated with 0.5 mM IAA solution. A media that simulates growth is a media without bacteria or their supernatant. The media comprises only RP and the organic acids used as purified powder commercially available (SIGMA), the organic acids concentration used are that produced by the bacteria when grown in a defined media (with IAA, or without, or from RFD64).

[5] = system: S. meliloti 1021; assay: Microarray gene expression of 1021 cells treated with 0.5 mM compound; conditions: 1021 + 0.5 mM IAA vs untreated 1021; P-sufficient (13 mM);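 further: cells were harvested 3 h after the start of each treatment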
Protocol: For P starvation experiments, cells of 1021 wild-type and RD64 strains were grown at 30° C. to mid exponential phase (OD600=0.6) in RMM broth containing 1% (w/v) mannitol as carbon source and 13 mM P, washed with RMM containing 0 P, resuspended in the same medium and then divided into three cultures. No P (−P), 1.0 mM P (P-starved cells) or 13 mM P (+P cells also named P-sufficient cells) was added into the three cultures, respectively. The P-starved and P-sufficient 1021 wild type cells were treated for 3.0 hours with 0.5 mM IAA. […] To rule out that this bacteria could be partially starved for Trp, RD64 cells were also treated with 0.5 mM Trp and used for microarrays and RT-PCR analyses. […] After 3 hours of each treatment, cell batches were collected, freezed and stored at −80° C. for use in experiments.

## O=C(O)Cc1c[nH]c2ccccc12 [IAA, indole-3-acetic acid]
[1]; P-starved conditions, vs control 1021
  expression level of all five pho genes (RT-PCR): highly induced
[1]; P-sufficient (13 mM K-phosphate), vs untreated 1021 cells
  phoB regulatory gene expression (qRT-PCR): down-regulated
[2]
  acid phosphatase activity: increase
[3]
  Organic acid content, Fumarate: 1.7 ± 0.1 mg/L
  Organic acid content, Malate: 86 ± 10 mg/L
  Organic acid content, Succinate: 864 ± 79 mg/L
[4]
  concentration of soluble P in bacteria free media: negligible
[5]
  M (log2 ratio of intensities) Mc01302 rplP: −1.862
  M (log2 ratio of intensities) SMa1118 hspC2: 1.296
  M (log2 ratio of intensities) SMb20893 gguB: 1.754
  M (log2 ratio of intensities) SMb20895 chvE: 1.425
  M (log2 ratio of intensities) SMb20922 smb20922: 1.711
  M (log2 ratio of intensities) SMb21174 phoT: −1.207
  M (log2 ratio of intensities) SMb21177 phoC: −0.7939
  M (log2 ratio of intensities) SMb21183 htpG: 1.384
  M (log2 ratio of intensities) SMb21197 oppB: 1.111
  M (log2 ratio of intensities) SMc00363 rpmI: −0.9807
  M (log2 ratio of intensities) SMc00364 rplT: −0.715
  M (log2 ratio of intensities) SMc00568 rpsF: −0.7616
  M (log2 ratio of intensities) SMc01103 rbsK: 1.2
  M (log2 ratio of intensities) SMc01169 ald: 3.025
  M (log2 ratio of intensities) SMc01291 rpmD: −1.237
  M (log2 ratio of intensities) SMc01295 rpsH: −0.8996
  M (log2 ratio of intensities) SMc01296 rpsN: −0.8326
  M (log2 ratio of intensities) SMc01301 rpmC: −1.273
  M (log2 ratio of intensities) SMc01309 rplC: −0.7247
  M (log2 ratio of intensities) SMc01319 rplJ: −1.438
  M (log2 ratio of intensities) SMc01628 smc01628: 0.7123
  M (log2 ratio of intensities) SMc02475 smc02475: 0.7339
  M (log2 ratio of intensities) SMc02514 smc02514: 1.764
  M (log2 ratio of intensities) SMc02729 smc02729: 0.8942
  M (log2 ratio of intensities) SMc02786 smc02786: 1.11
  M (log2 ratio of intensities) SMc03168 smc03168: 1.165
  M (log2 ratio of intensities) SMc04087 smc04087: 1.593

Source: patent US9157104B2, “Method to improve phosphate solubilization in plants” (Consiglio Nazionale delle Ricerche, priority 2009, dated 2015)
